{"source": "paper PMC8512560", "about": "“Design, Synthesis, and Antipoliferative Activities of Novel Substituted Imidazole-Thione Linked Benzotriazole Derivatives” (Molecules, 2021)", "key": {"[1]": {"tested_on": "BAX", "test": "Western blot of BAX expression in HL-60 cells", "type": "cell-based, human", "conditions": "HL-60, 0.5 and 1 µM, compared to the untreated group", "procedure": "HL-60 cells were seeded at a density of 1 × 10^5 cells/flask in T25 flasks. […] HL-60 cells were harvested in RIPA buffer supplemented with protease inhibitors (Roche Diagnostics), phosphatase inhibitor cocktail 2 (Sigma-Aldrich), and phosphatase inhibitor cocktail 3 (Sigma-Aldrich). Equal quantities of protein (as determined by a BCA assay) were resolved by SDS-PAGE (12%) followed by transfer to PVDF membranes. Membranes were blocked in 5% bovine serum albumin/TBST for 1 h. Membranes were incubated in the relevant primary antibodies at 4 °C overnight, washed with TBST, and incubated in horseradish peroxidase conjugated secondary antibody for 1 h at rt and washed again. Western blot analysis was performed as described above using antibodies directed against BAX [1:1000] (Cell Signaling Technology), PARP [1:500] (Cell Signaling Technology) and Bcl-2 [1:500] (Cell Signaling Technology) followed by incubation with a horseradish peroxidase-conjugated anti-mouse antibody [1:2000] (Promega, Madison, WI, USA). All blots were probed with β-actin antibody [1:5000] (Sigma) to confirm equal loading. Proteins were detected using enhanced chemiluminescent Western blot detection (Clarity Western ECL substrate) (Bio Rad) on the ChemiDoc MP System (Bio Rad). Experiments were performed on three independent occasions."}, "[2]": {"tested_on": "HUVEC human umbilical vein endothelial cell line", "test": "MTT viability assay, normal HUVEC cells", "type": "cell-based", "conditions": "72 h, mean ± SD of three independent experiments", "procedure": "All the human tumour cell lines MCF-7, HL-60, HCT-116, and HUVEC were cultured in Dulbecco’s Modified Eagle’s Medium (DMEM) with 10% fetal bovine serum, 2 mM L-glutamine and 100 µg/mL penicillin/streptomycin. Cells were maintained at 37 °C in 5% CO2 in a humidified incubator. All cells were sub-cultured three times/week by trypsinization using TrypLE Express (1X).\nThe Benzotriazole compounds were evaluated for antiproliferative effect using the MTT viability assay of various cancer cell lines (MCF-7, HCT-116 and HL-60) and the normal human umbilical vein endothelial cell line (HUVEC) to calculate the relative IC50 values for each compound. Cells were seeded in triplicate in 96-well plates at a density of 10 × 10^3 cells/mL in a total volume of 200 µL per well. 0.1% of DMSO was used as a vehicle control. After this time, they were treated with 2 µL test compound which had been pre-prepared as stock solutions in ethanol to furnish the concentration range of study, 10 nM to 100 µM, and re-incubated for a further 72 h. The culture medium was then removed, and the cells washed with 100 µL phosphate buffered saline (PBS) and 50 µL MTT added, to reach a final concentration of 1 mg/mL MTT added. Cells were incubated for 2 h in darkness at 37 °C. At this point solubilisation was begun through the addition of […] DMSO and the cells maintained at room temperature in darkness for 20 min to ensure thorough colour diffusion before reading the absorbance. Plates were incubated for 72 h at 37 °C + 5% CO2. The MTT (5 mg/mL in PBS) was added and incubated for another 4 h, and the optical density was detected with a microplate reader at 570 nm. Results were expressed as percentage viability relative to vehicle control (100%). Dose response curves were plotted and IC50 values (concentration of drug resulting in 50% reduction in cell survival) were obtained using the commercial software package Prism (GraphPad Software, Inc., La Jolla, CA, USA). All the experiments were repeated in at least three independent experiments."}, "[3]": {"tested_on": "PARP", "test": "Western blot of PARP cleavage in HL-60 cells", "type": "cell-based, human", "conditions": "HL-60, after a 48 h treatment", "procedure": "HL-60 cells were seeded at a density of 1 × 10^5 cells/flask in T25 flasks. After 48 h, whole cell lysates were prepared from untreated cells or cells treated with vehicle control (EtOH, 0.1% v/v) or compound BI9 (0.5 and 1 μM). HL-60 cells were harvested in RIPA buffer supplemented with protease inhibitors (Roche Diagnostics), phosphatase inhibitor cocktail 2 (Sigma-Aldrich), and phosphatase inhibitor cocktail 3 (Sigma-Aldrich). Equal quantities of protein (as determined by a BCA assay) were resolved by SDS-PAGE (12%) followed by transfer to PVDF membranes. Membranes were blocked in 5% bovine serum albumin/TBST for 1 h. Membranes were incubated in the relevant primary antibodies at 4 °C overnight, washed with TBST, and incubated in horseradish peroxidase conjugated secondary antibody for 1 h at rt and washed again. Western blot analysis was performed as described above using antibodies directed against BAX [1:1000] (Cell Signaling Technology), PARP [1:500] (Cell Signaling Technology) and Bcl-2 [1:500] (Cell Signaling Technology) followed by incubation with a horseradish peroxidase-conjugated anti-mouse antibody [1:2000] (Promega, Madison, WI, USA). All blots were probed with β-actin antibody [1:5000] (Sigma) to confirm equal loading. Proteins were detected using enhanced chemiluminescent Western blot detection (Clarity Western ECL substrate) (Bio Rad) on the ChemiDoc MP System (Bio Rad). […]"}, "[4]": {"tested_on": "HL-60 cells", "test": "Cell cycle analysis by PI flow cytometry", "type": "cell-based, human", "conditions": "1 µM", "procedure": "HL-60 cells were seeded at a density of 1 × 10^5 cells/well in 6-well plates and treated with CA-4 and compound BI9 (1 µM) for 48 and 72 h. The cells were collected by trypsinization and centrifuged at 800× g for 15 min. Cells were washed twice with ice-cold PBS and fixed in ice-cold 70% ethanol overnight at −20 °C. Fixed cells were centrifuged at 800× g for 15 min and stained with 50 μg/mL of PI, containing 50 μg/mL of DNase-free RNase A, at 37 °C for 30 min. The DNA content of cells (10,000 cells/experimental group) was analysed by flow cytometer at 488 nm using a FACSCalibur flow cytometer (BD Biosciences, San Jose, CA, USA) and all data were recorded and analysed using the CellQuest Software (Becton-Dickinson)."}, "[5]": {"tested_on": "colchicine binding site of tubulin", "test": "Colchicine site competitive binding assay ([3H]colchicine)", "conditions": "tubulin and colchicine at 1 and 5 µM", "procedure": "The affinity of Benzotriazole compounds to colchicine binding site was determined using a Colchicine Site Competitive Assay kit CytoDYNAMIX Screen15 (Cytoskeleton, Inc., Denver, CO, USA) using the standard protocol of the manufacturer to determine Ki values (μM). Biotin-labelled tubulin ([…]) and the test compounds (positive control colchicine, negative control vinblastine, G-1, fluorescent G-1, or 2-ME) in a 96-well plate (final volume: 100 μL). After incubating for 2 h at 37 °C with gentle shaking, streptavidin-labelled yttrium SPA beads (80 μg in 20 μL reaction buffer, PerkinElmer, Waltham, MA) were added to each well and incubated for 30 min at 4 °C. The plates were then read on a scintillation counter (Packard Instrument, Topcount Microplate Reader) and the percentage of inhibition was calculated."}}, "note": "“And” between values parts separate entries of the source, which are not always exact repeats. Equal entries are not always repeated."}
{"smiles": "S=c1[nH]c(-n2nnc3ccccc32)cn1-c1ccc(Cl)cc1Cl", "note": "[BI9, 4-(1H-Benzo[d][1,2,3]Triazol-1-yl)-1-(2,4-Dichlorophenyl)-1H-Imidazole-2(3H)-Thione]", "values": [{"measurement": "Expression level of pro-apoptotic Bax protein", "setting": "[1]", "value": "significantly up-regulated"}, {"measurement": "IC50", "setting": "[2]", "value": "> 100", "unit": "µM"}, {"measurement": "PARP cleavage (indicator of apoptosis)", "setting": "[3]", "value": "confirmed"}, {"measurement": "Proportion of HL-60 cells in G2/M phase", "setting": "[4]; 48 h", "value": 32.3, "unit": "%"}, {"measurement": "Population in the sub-G1 phase (apoptosis)", "setting": "[4]; 48 h, untreated cells 1.5%", "value": 23.1, "unit": "%"}, {"measurement": "Proportion of HL-60 cells in G2/M phase", "setting": "[4]; 72 h", "value": 35.1, "unit": "%"}, {"measurement": "Population in the sub-G1 phase (apoptosis)", "setting": "[4]; 72 h, untreated cells 3.5%", "value": 27.5, "unit": "%"}, {"measurement": "Colchicine Binding % ± SD (inhibition of [3H]colchicine binding), 1 µM Drug", "setting": "[5]; 1 µM drug", "value": "49% and 49.38 ± 2%"}, {"measurement": "Colchicine Binding % ± SD (inhibition of [3H]colchicine binding), 5 µM Drug", "setting": "[5]; 5 µM drug", "value": "66% and 66.57 ± 2%"}]}
